Measurements from patent US10005758B2, “Process for the preparation of 3-(3-chloro-1H-pyrazol-1-yl)pyridine” (Dow AgroSciences LLC, priority 2014, dated 2018).

Legend:
[1] = tested on: Green Peach Aphid (Myzus persicae) (MYZUPE); assay: Bioassay on Green Peach Aphid (GPA), foliar spray on infested cabbage seedlings; assay type: in vivo; details: 72 h, 200 ppm foliar spray on cabbage, live aphids counted after three days, read-out: MYZUPE rating (% Mortality; Abbott corrected % control)
Experimental: Example A Bioassays on Green Peach Aphid (“GPA”) (Myzus persicae) (MYZUPE.)
Several molecules disclosed herein were tested against GPA using procedures described below.
Cabbage seedling grown in 3-in pots, with 2-3 small (3-5 cm) true leaves, were used as test substrate. The seedlings were infested with […] (wingless adult and nymph stages) one day prior to chemical application. Four pots with individual seedlings were used for each treatment. Test compounds (2 mg) were dissolved in 2 mL of acetone/MeOH (1:1) solvent, forming stock solutions of 1000 ppm test compound. The stock solutions were diluted 5× with 0.025% Tween 20 in water to obtain the solution at 200 ppm test compound. A hand-held aspirator-type sprayer was used for spraying a solution to both sides of the cabbage leaves until runoff. Reference plants (solvent check) were sprayed with the diluent only containing […] acetone/MeOH (1:1) solvent. Treated plants were held in a holding room for three days at approximately 25° C. and ambient relative humidity (RH) prior to grading. Evaluation was conducted by counting the number of live aphids per plant under a microscope. Percent Control was measured by using Abbott's correction formula (W. S. Abbott, “A Method of Computing the Effectiveness of an Insecticide” J. Econ. Entomol 18 (1925), pp. 265-267) as follows. Corrected % Control=100*(X−Y)/X […]

[2] = tested on: Sweetpotato Whitefly Crawler (Bemisia tabaci) (BEMITA); assay: Bioassay on Sweetpotato Whitefly Crawler, foliar spray on infested cotton plants; assay type: in vivo; details: 200 ppm foliar spray on cotton, live nymphs counted after 8-9 days, read-out: BEMITA rating (% Mortality; Abbott corrected % control)
Description: Example B Bioassays on Sweetpotato Whitefly Crawler (Bemisia tabaci) (BEMITA.)
Cotton plants grown in 3-inch pots, with 1 small (3-5 cm) true leaf, were used at test substrate. The plants were placed in a room with whitely adults. Adults were allowed to deposit eggs for 2-3 days. After a 2-3 day egg-laying period, plants were taken from the adult whitefly room. Adults were blown off leaves using a hand-held Devilbliss sprayer (23 psi). Plants with egg infestation (100-300 eggs per plant) were placed in a holding room for 5-6 days at 82° F. and 50% RH for egg hatch and crawler stage to develop. Four cotton plants were used for each treatment. Compounds (2 mg) were dissolved in 1 mL of acetone solvent, forming stock solutions of 2000 ppm. The stock solutions were diluted 10× with 0.025% Tween 20 in water to obtain a test solution at 200 ppm. A hand-held Devilbliss sprayer was used for spraying a solution to both sides of cotton leaf until runoff. Reference plants (solvent check) were sprayed with the diluent only. Treated plants were held in a holding room for 8-9 days at approximately 82° F. and 50% RH prior to grading. Evaluation was conducted by counting the number of live nymphs per plant under a microscope.

Compound: CCOC(=O)C1CC(=O)NN1c1cccnc1 (stereo not shown) [Example Compound 10a, Ethyl 5-oxo-2-(pyridin-3-yl)pyrazolidine-3-carboxylate]
- mortality at 200 ppm [1]: 0 to 80%
- mortality at 200 ppm [2]: 0 to 80%

Compound: CCOC(=O)C1CC(Cl)=NN1c1cccnc1 (stereo not shown) [Example Compound 10b, Ethyl 3-chloro-1-(pyridin-3-yl)-4,5-dihydro-1H-pyrazole-5-carboxylate]
- mortality at 200 ppm [1]: 0 to 80%
- mortality at 200 ppm [2]: 0 to 80%
